Experimental data: publication PMC9321663, “The DevTox Germ Layer Reporter Platform: An Assay Adaptation of the Human Pluripotent Stem Cell Test” (Toxics, 2022)
Counter-ions that a name gives are not always drawn. Like-named read-outs stand apart in the source and are kept apart here.

Assays:
RUES2-GLR cells = assay: DevTox GLR-Endo assay: decrease in total cell count, cytotoxicity (AEID 3098, CellCount_dn); conditions: for Emax: Homo sapiens, read-out: Cell Count % Max Inhibition
[1] = tested on: o/c ratio in H9 embryonic stem cells; conditions: Teratogen Index, o/c ratio; cited from earlier work
[2] = cited from earlier work; for Classification: developmental toxicant classification (Teratogen / Non-Teratogen) of reference and training chemicals, ref DOI per chemical: 10.1093/toxsci/kft239, 10.1093/toxsci/kfaa014, 10.1177/026119290203000204, 10.1038/s41598-020-59542-x; for DT Class.: developmental toxicant classification; for Development Toxicant Classification: Table S2
[3] = tested on: SOX17 (endoderm marker) in RUES2-GLR cells; assay: DevTox GLR-Endo assay: decrease in percent SOX17-positive cells (AEID 3094, Sox17_dn); conditions: for AC50 / Emax: Homo sapiens; for Hit Call: Table S2, SOX17-positive cells, cutoff 3*bmad; for HIT−CALL: tcpl plot AEID3094, COFF 20.3; for DevTox ACC: Table S2, percent SOX17-positive cells; for DevTox ACC / DevTox-GLR Endo ACC: 48 h exposure; for DevTox-GLR Endo ACC: activity concentration at cutoff, SOX17-positive cells
Method in brief: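 Readouts are loss of SOX17-positive fraction and reduced cell number in endoderm-differentiating RUES2-GLR cells after 48 h of chemical exposure. Controls: undifferentiated and differentiated cells, 0.2% DMSO, and 1 µM SB431542; at least four biological replicates.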

[4] = tested on: SOX17 (endoderm marker) in RUES2-GLR cells; assay: DevTox GLR-Endo assay: increase in percent SOX17-positive cells (AEID 3093, Sox17_up); assay type: cell-based, human; conditions: for Emax: Homo sapiens; for HIT−CALL: tcpl plot AEID3093, COFF 20.3
Protocol: (§1) The total test chemical incubation period was 48 h.
(§2) (Supplementary Materials).

[5] = tested on: SOX2 (ectoderm and pluripotency marker) in RUES2-GLR cells; assay: DevTox GLR-Endo assay: increase in percent SOX2-positive cells (AEID 3095, Sox2_up); conditions: for AC50 / Emax: Homo sapiens; for AC50: read-out: ga (winning model); for Emax: read-out: tp (winning model); for MAX_MEAN: tcpl plot AEID3095, maximum mean response; for MAX_MED: tcpl plot AEID3095, maximum median response;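 as to all read-outs here: cells exposed to test chemicals for 48 h in total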
Protocol: RUES2-GLR cells were seeded 24 h prior to differentiation initiation into vitronectin-coated 384-well CellCarrier Ultra plates (10.6 mm^2/well) (Perkin Elmer, Waltham, MA, USA). Vitronectin (0.5 µg/cm^2)-coated plates were prepared and stored at 4 °C, wrapped in parafilm, for less than seven days and incubated at room temperature for one hour prior to cell seeding. […] Cells were dispensed into 20 µL coating solution using a Certus FLEX Micro Dispenser (Fritz Gyger, Gwatt, Switzerland) with a 0.45 µm valve to a final volume of 100 µL and density of 2.8 × 10^3 cells per well.
Following a 24 h post-seeding incubation period (Time = 0 h) (Figure 3A), directed endoderm differentiation was initiated with the PSC Definitive Endoderm Induction kit (Gibco, Waltham, MA, USA). […] A target dilution series (0.002–200 µM) was generated by dispensing variable nanoliter volumes of test chemical and backfilling with a complementary volume of DMSO using Echo Cherry Pick software (v.1.6.2). Wells were backfilled with 50 µL of induction medium using a Certus FLEX Micro Dispenser with 0.45 µm valves. Test compound treatment plates were mixed on a Multi-Microplate Genie mixer at 700 rpm for 10 min and subsequently incubated for two hours in a humidified atmosphere at 37 °C with 5% CO2. Each chemical treatment (0 h–Medium A; 24 h–Medium B) were prepared the day of treatment. At 0 h, cell culture medium was aspirated from the assay plate at a rate of 1 µL/s and 40 µL of Medium A ± test chemical applied using a CyBio FeliX automated liquid handler (Analytik Jena, Jena, Germany). At 24 h, conditioned cell culture medium was aspirated and 40 µL of Medium B ± test chemical was applied. At 48 h, cells were prepared for high-content image acquisition by fixation and nuclear staining. The total test chemical incubation period was 48 h. For fixation, a 4% paraformaldehyde (PFA) solution was achieved by adding 40 µL of 8% PFA directly to cell culture medium using a CyBio FeliX liquid handler. […] Following an additional 30 min incubation period at room temperature, staining solution was aspirated, 50 µL of DPBS was added, and plate sealed with MicroAmp Optical Adhesive Film (Applied Biosystems, Waltham, MA, USA).
Images were acquired within 12 h post-fixation using an Opera Phenix High-Content Screening System (Perkin Elmer, Waltham, MA, USA). […] Cell identification and mean biomarker fluorescent intensities were calculated using Harmony image analysis software (Perkin Elmer, Waltham, MA, USA). Cell nuclei were identified using the object classifying algorithm C of the software with border objects excluded using the “Remove Border Objects” feature. Mean cell biomarker intensity statistics were gathered from each object and exported for further analysis using a custom script in Python version 3.7.4 [61] […] For each plate, pluripotent-negative control wells were used to establish baseline intensity values and a cutoff threshold for determining SOX17 and BRA biomarker-positive cells. Endoderm differentiated positive control wells were used to establish baseline intensity values and a cutoff threshold for SOX2-positive cells. Cells with a mean intensity five times the baseline median absolute deviation (5*bmad) above the median cell intensity for plate-based control population technical replicates were considered positive. Well-based cell counts, reflected by the sum of total counted objects from all fields, were used to calculate the percent responders for each respective biomarker and evaluate cytotoxicity. Well-level results were exported for data modeling in the ToxCast Pipeline.
The ToxCast Pipeline R package (tcpl v.2.0.2) was used to normalize, fit, and qualify concentration-response screening data [63].

[6] = tested on: BRA (mesoderm marker) in RUES2-GLR cells; assay: DevTox GLR-Endo assay: increase in percent BRA-positive cells (AEID 3096, Bra_up); assay type: cell-based, human; conditions: for HIT−CALL: tcpl plot AEID3096, COFF 0.774; for MAX_MEAN: tcpl plot AEID3096, maximum mean response; for MAX_MED: tcpl plot AEID3096, maximum median response
Protocol: as §1, §2

in vitro = conditions: human
H9 human ESC line = conditions: cited from earlier work
[7] = tested on: SOX17 in H9 human ESC line; conditions: SOX17 half-maximal inhibition concentration; read-out: hPST IC50; cited from earlier work
[8] = chemicals common with quickPredict
[9] = read-out: ga (winning model), tcpl plot AEID3094, gain parameter of winning curve fit (log concentration, µM axis), hit calls only (converted)
[10] = tcpl plot AEID3093, maximum mean response, read-out: MAX_MEAN
[11] = tcpl plot AEID3093, maximum median response, read-out: MAX_MED
[12] = read-out: DevTox % Max Inhibition
[13] = cytotoxicity half-maximal concentration
[14] = 48 h, read-out: DevTox-GLR Endo AC50 (µM), SOX17 half-maximal activity concentration, 48 h exposure

| Cell Count ACC (RUES2-GLR cells; human, 48 h) | SMILES | Emax (RUES2-GLR cells) | quickPredict TI [1] | Classification [2] | DT Class. [2, 8] | AC50 [3, 9] | Hit Call [3] | HIT−CALL [3] | Emax [4, 10] | Emax [4, 11] | HIT−CALL [4] | AC50 [5] | Emax [5] | MAX_MEAN [5] | MAX_MED [5] | Emax [3, 12] | Emax ([3]; read-out: MAX_MEAN) | Emax ([3]; read-out: MAX_MED) | Emax ([3]; read-out: tp (winning model)) | DevTox ACC [3] | other results |
| --- | --- | --- | --- | --- | --- | --- | --- | --- | --- | --- | --- | --- | --- | --- | --- | --- | --- | --- | --- | --- | --- |
|  | CCCCc1oc2ccccc2c1C(=O)c1cc(I)c(OCCN(CC)CC)c(I)c1 [Amiodarone] | 97.1% | 5.1 µM | Teratogen | Pos | 17 µM | Positive | 1 | 6.18% | 3.59% | 0 | 11.7 µM | 1.23% | 2.82 Percent Activity | 2.22 Percent Activity |  |  |  |  |  |  |
| 0.05231 µM | Nc1ccn([C@@H]2O[C@H](CO)[C@@H](O)[C@@H]2O)c(=O)n1 [Cytarabine] | 86.7% | 0.054 µM | Teratogen | Pos | 0.557 µM | Positive | 1 | 12.2% | 12.7% | 0 | 0.582 µM | 2.27% | 2.89 Percent Activity | 2.91 Percent Activity | 102% | 102% | 102% | 102% | 0.4557 µM | effect on cell count (in words) (RUES2-GLR cells): significant decreases in cell count; DevTox-GLR Endo CC (RUES2-GLR cells; human, 48 h): 0.05 µM; DevTox-GLR Endo ACC [3]: 0.46 µM |
|  | CN(C)CCOC(c1ccccc1)c1ccccc1 [Diphenhydramine] | 78.9% | 0.588 µM |  |  | 61.7 µM | Positive | 1 | -0.267% | -1.82% | 0 | 631 µM | 2.12% | 2.92 Percent Activity | 1.57 Percent Activity |  |  |  | 117% |  | HIT−CALL [6]: 1; MAX_MEAN [6]: 1.61 Percent Activity; MAX_MED [6]: 1.58 Percent Activity |
| 8.702 µM | COc1ccc2c(c1)c(CC(=O)O)c(C)n2C(=O)c1ccc(Cl)cc1 [Indomethacin] | 92.5% | 72.7 µM |  |  | 13.2 µM | Positive | 1 | 0.625% | -1.03% | 0 | 12.9 µM | 6.38% | 6.48 Percent Activity | 6.65 Percent Activity | 101% | 100% | 101% | 101% | 9.385 µM | DevTox-GLR Endo CC (RUES2-GLR cells; human, 48 h): 8.70 µM; DevTox-GLR Endo ACC [3]: 9.38 µM |
| 0.7145 µM | CC[C@H](C)C(=O)O[C@H]1C[C@@H](C)C=C2C=C[C@H](C)[C@H](CC[C@@H]3C[C@@H](O)CC(=O)O3)[C@H]21 [Lovastatin] | 95.4% | 5.1 µM | Teratogen | Pos | 11.2 µM | Positive | 1 | -9.76% | -10.1% | 0 | 36.3 µM | 13.5% | 21.1 Percent Activity | 14.8 Percent Activity | 102% | 102% | 102% | 123% | 0.9345 µM | DevTox-GLR Endo CC (RUES2-GLR cells; human, 48 h): 0.71 µM; Development Toxicant Classification [2]: Positive; DevTox-GLR Endo ACC [3]: 0.93 µM |
|  | CCCCC(CC)COC(=O)c1ccccc1C(=O)O (stereo not drawn) [MEHP] |  | 167 µM |  |  |  | Positive | 1 |  |  | 0 |  |  | 1.85 Percent Activity | 1.77 Percent Activity |  |  |  |  | 76.3285 µM | Cell Count ACC (RUES2-GLR cells): 61.5464 µM; DevTox-GLR Endo CC (RUES2-GLR cells): 61.55 µM; Cell Count % Max Inhibition (RUES2-GLR cells; Table S2, cell count relative to DMSO): 76.1511%; DevTox % Max Inhibition ([3]; Table S2, percent SOX17-positive cells relative to DMSO): 67.6802%; DevTox-GLR Endo ACC [3]: 76.33 µM; ga (winning model) ([3]; tcpl plot AEID3094, gain parameter of winning curve fit (log concentration, µM axis), hit calls only): 2.11; MAX_MEAN ([3]; tcpl plot AEID3094, maximum mean response): 65.4 Percent Activity; MAX_MED ([3]; tcpl plot AEID3094, maximum median response): 67.7 Percent Activity; tp (winning model) ([3]; tcpl plot AEID3094, top of winning curve fit (Hill or gain-loss), hit calls only): 89.3; MAX_MEAN ([4]; tcpl plot AEID3093, maximum mean response): 6.64 Percent Activity; MAX_MED ([4]; tcpl plot AEID3093, maximum median response): 12.4 Percent Activity; HIT−CALL [6]: 0; MAX_MEAN [6]: 1.95 Percent Activity; MAX_MED [6]: 1.69 Percent Activity |
| 18.1066 µM | CO[C@H]1/C=C/O[C@@]2(C)Oc3c(C)c(O)c4c(O)c(c(/C=N/N5CCN(C)CC5)c(O)c4c3C2=O)NC(=O)/C(C)=C\C=C\[C@H](C)[C@H](O)[C@@H](C)[C@@H](O)[C@@H](C)[C@H](OC(C)=O)[C@@H]1C [Rifampicin] | 92.4% | 2.46 µM | Teratogen | Pos | 67.6 µM | Positive | 1 | 7.3% | 7.36% | 0 |  |  | 0.548 Percent Activity | 0.542 Percent Activity | 101% | 102% | 101% | 108% | 37.8542 µM | DevTox-GLR Endo CC (RUES2-GLR cells; human, 48 h): 18.11 µM; Development Toxicant Classification [2]: Positive; DevTox-GLR Endo ACC [3]: 37.85 µM |
| >200 µM | O=C1NS(=O)(=O)c2ccccc21 [Saccharin] | 17.9% |  | Non-Teratogen | Neg |  | Negative | 0 | 10.2% | 10.9% | 0 |  |  | 0.945 Percent Activity | 0.563 Percent Activity | 13% | 11% | 13% |  | >200 µM | CC50 at 48 h (in vitro): > 200 µM; Development Toxicant Classification [2]: Negative; DT Class. ([2]; chemicals common with hPST): Neg; Developmental Toxicant Classification ([2]; reference chemicals): Negative; hPST TC50 (H9 human ESC line; [13]): >400 µM; hPST TC50 (H9 human ESC line; hPST cytotoxicity): > 400 µM; AC50 [3, 14]: > 200 µM; IC50 [7]: > 400 µM; HIT−CALL [6]: 0; MAX_MEAN [6]: 1.1 Percent Activity; MAX_MED [6]: 1.04 Percent Activity |
|  | [H]/N=C(/NCCCCC)N/N=C/c1c[nH]c2ccc(OC)cc12 [Tegaserod Maleate] | 98.8% |  | Non-Teratogen |  | 5.32 µM | Positive | 1 | 6.89% | 6.94% | 0 |  |  | 2.78 Percent Activity | 2.79 Percent Activity | 102% | 102% | 102% | 102% | 4.472 µM | Cell Count ACC (RUES2-GLR cells; Table S2, 48 h exposure): 4.239 µM; CC50 at 48 h (in vitro; RUES2-GLR cells under directed endoderm differentiation): 5.06 µM; Development Toxicant Classification [2]: Negative; DT Class. ([2]; chemicals common with hPST): Neg; hPST TC50 (H9 human ESC line; [13]): 4.5 µM; hPST TC50 (H9 human ESC line; hPST cytotoxicity): 4.5 µM; hit call designation (in words) ([3]; DevTox GLR-Endo prediction against developmental toxicant classification): false positive; AC50 [3, 14]: 5.32 µM; Emax ([3]; read-out: maximum observed effect level class (% max inhibition)): 80 to 100%; IC50 [7]: 4.6 µM; HIT−CALL [6]: 1; MAX_MEAN [6]: 3.57 Percent Activity; MAX_MED [6]: 2.57 Percent Activity |
